Read-outs that look alike come from different tables or passages of the source. A value given as a limit tells only on which side of the number the result lay.

Common to all, as to assay type: cell-based
Common to all, as to details: Homo sapiens

One experiment relates to Aβ-42. The experiment can be described thus: Aβ-42 MSD 3-PLEX ELISA, conditioned media of 2B7 cells. On the procedure: (§1) Assays were conducted to determine the ability of a Compound of Formula I to modulate […], […], and Aβ-38. Human (6E10) Ab 3-PLEX ELISA kits were purchased from Meso Scale Discovery Labs, 9328 Gaither Road, Gaithersburg, Md. 20877 (Catalog Number […]-3). Plates with capture antibodies were blocked for 1-2 hours at room temperature with 150 μL of the manufactures blocking reagent. Cultured 2B7 cells in 96 well plate with 250 μL of media per well until confluent; Prepared serial dilutions of compounds in DMSO at 100× the final desired concentration; Washed wells with 2B7 cells 1× with 250 μL of media; Diluted DMSO stocks 1:100 into media: Added 250 μL of media containing compounds (1% DMSO) to wells with 2B7 cells for 5 hours at 37° C. Diluted conditioned media: 1 part media with 1% DMSO and 1 part blocking buffer; 150 μL of the 250 μL of conditioned media were used. Seven point standard curve samples were prepared that contained Aβ-42, Aβ-40, and Aβ-38. The highest concentration of Aβ-42 and Aβ-38 was 3,000 pg/mL and the highest concentration of Aβ-40 was 10,000 pg/mL. Subsequent serial dilutions were 1:3 and the final composition of each sample was 1 part blocking buffer and 1 part cell medium containing 1% DMSO. Blocked plates are washed 5× with MSD wash buffer with a plate washer; 25 μL of detection antibody and blocker G reagent in MSD blocking solution was added; 25 μL of samples (1 part conditioned media containing 1% DMSO and 1 part MSD blocking buffer) were then added; Plates were incubated overnight at 4 degrees C. or 2 hours at room temperature. Washed wells 5× with MSD wash buffer; Added 150 μL 2×MSD read buffer; Read with MSD imager. Aβ peptide levels for each peptide were calculated from the standard curve using the MSD software provided with the MSD 2400 Imager. Percent vehicle values for each compound dosage were then calculated and fit to a 4 parameter curve generating IC50 values.
For orientation: In an ELISA, binding on a coated surface is turned into a signal by an enzyme label.

For another experiment, the system named is Aβ-38. The experiment can be described thus: Aβ-38 MSD 3-PLEX ELISA, conditioned media of 2B7 cells. On the procedure:
as §1

The next experiment deals with Aβ-40. The experiment can be described thus: Aβ-40 MSD 3-PLEX ELISA, conditioned media of 2B7 cells. How it is done: as §1
Where [1] appears, read: 2B7 cells, 5 hours at 37° C., 1% DMSO, read-out: Aβ 42 IC50.
The mark [2] stands for this setting: 2B7 cells, 5 hours at 37° C., 1% DMSO, read-out: Aβ 38 IC50.
The mark [3] stands for this setting: 5 h, read-out: Aβ 42 DR IC50 Inflection.
The mark [4] stands for this setting: 5 h, read-out: Aβ 40 DR IC50 Inflection.
Where [5] appears, read: 2B7 cells, 5 hours at 37° C., 1% DMSO, read-out: Aβ 40 IC50.
Setting [6] is: 5 h, read-out: Aβ 38 DR IC50 Inflection.

With `CCO[C@@H]([C@H]1C[C@@H](C)[C@H]2[C@H](O1)[C@H](O)[C@@]1(C)[C@@H]3CC[C@H]4C(C)(C)[C@@H](OC(=O)NCCNS(=O)(=O)C(F)(F)F)CC[C@@]45C[C@@]35CC[C@]21C)C(C)(C)O` [Compound I-1], the results for the IC50 with Aβ-42 (setting [1]) and in the experiment with Aβ-38 (setting [2]) were 501 to 1000 nM and 1000 to 5000 nM, respectively.

As to `CCO[C@@H]([C@H]1C[C@@H](C)[C@H]2[C@H](O1)[C@H](O)[C@@]1(C)[C@@H]3CC[C@H]4C(C)(C)[C@@H](OC(=O)N(C)C5CN(C)C5)CC[C@@]45C[C@@]35CC[C@]21C)C(C)(C)O` [Compound I-2], the IC50 with Aβ-42 (setting [3]) is below 100 nM; with Aβ-42 (setting [1]) it was below 100 nM; in the experiment with Aβ-40 (setting [4]) it was above 5000 nM; in the experiment on Aβ-40 (setting [5]) it was 1000 to 5000 nM; with Aβ-38 (setting [6]), below 100 nM; in the experiment on Aβ-38 (setting [2]) it was 100 to 500 nM.

In the case of `CCO[C@@H]([C@H]1C[C@@H](C)[C@H]2[C@H](O1)[C@H](O)[C@@]1(C)[C@@H]3CC[C@H]4C(C)(C)[C@@H](OC(=O)N5CCNC(C(F)(F)F)C5)CC[C@@]45C[C@@]35CC[C@]21C)C(C)(C)O` (stereo partly shown) [Compound I-3], the IC50 is 100 to 500 nM in the experiment on Aβ-42 (setting [1]) and 1000 to 5000 nM in the experiment with Aβ-38 (setting [2]).

Turning to `CCO[C@@H]([C@H]1C[C@@H](C)[C@H]2[C@H](O1)[C@H](O)[C@@]1(C)[C@@H]3CC[C@H]4C(C)(C)[C@@H](OC(=O)N5CCN(C6COC6)CC5)CC[C@@]45C[C@@]35CC[C@]21C)C(C)(C)O` [Compound I-4], the IC50 in the experiment on Aβ-42 (setting [3]) is 100 to 500 nM; with Aβ-42 (setting [1]), 100 to 500 nM; in the experiment with Aβ-40 (setting [5]) it was above 5000 nM; in the experiment with Aβ-38 (setting [2]), 1000 to 5000 nM.

Consider `CCO[C@@H]([C@H]1C[C@@H](C)[C@H]2[C@H](O1)[C@H](O)[C@@]1(C)[C@@H]3CC[C@H]4C(C)(C)[C@@H](OC(=O)N5CCN(CC(=O)O)CC5)CC[C@@]45C[C@@]35CC[C@]21C)C(C)(C)O` [Compound I-5], for which the results for the IC50 in the experiment with Aβ-42 (setting [3]), in the experiment on Aβ-42 (setting [1]) and with Aβ-40 (setting [5]) were 100 to 500 nM, 100 to 500 nM and above 5000 nM, respectively.

In the case of `CCO[C@@H]([C@H]1C[C@@H](C)[C@H]2[C@H](O1)[C@H](O)[C@@]1(C)[C@@H]3CC[C@H]4C(C)(C)[C@@H](OC(=O)N(C)CC(=O)O)CC[C@@]45C[C@@]35CC[C@]21C)C(C)(C)O` [Compound I-6], in the experiment with Aβ-42 (setting [1]), the IC50 lay in the range of 501 to 1000 nM.

For `CCO[C@@H]([C@H]1C[C@@H](C)[C@H]2[C@H](O1)[C@H](O)[C@@]1(C)[C@@H]3CC[C@H]4C(C)(C)[C@@H](OC(=O)N5CCN(CCOC)CC5)CC[C@@]45C[C@@]35CC[C@]21C)C(C)(C)O` [Compound I-7], the IC50 with Aβ-42 (setting [3]) lay in the range of 100 to 500 nM; in the experiment on Aβ-42 (setting [1]), 100 to 500 nM; in the experiment with Aβ-38 (setting [2]), 501 to 1000 nM.

Take `CCO[C@@H]([C@H]1C[C@@H](C)[C@H]2[C@H](O1)[C@H](O)[C@@]1(C)[C@@H]3CC[C@H]4C(C)(C)[C@@H](OC(=O)N5CCN(C)CC5)CC[C@@]45C[C@@]35CC[C@]21C)C(C)(C)O` [Compound I-8]: the IC50 with Aβ-42 (setting [3]) is below 100 nM; with Aβ-42 (setting [1]), below 100 nM; in the experiment with Aβ-40 (setting [4]), above 5000 nM; in the experiment with Aβ-40 (setting [5]) it was 1000 to 5000 nM; with Aβ-38 (setting [6]), below 100 nM; with Aβ-38 (setting [2]), 100 to 500 nM.

For the compound `CCO[C@@H]([C@H]1C[C@@H](C)[C@H]2[C@H](O1)[C@H](O)[C@@]1(C)[C@@H]3CC[C@H]4C(C)(C)[C@@H](OC(=O)N5CCNCC5)CC[C@@]45C[C@@]35CC[C@]21C)C(C)(C)O` [Compound I-10], the half-maximal inhibitory concentration (IC50) in the experiment with Aβ-42 (setting [1]) is below 100 nM; in the experiment on Aβ-38 (setting [2]), 100 to 500 nM.

`CCO[C@@H]([C@H]1C[C@@H](C)[C@H]2[C@H](O1)[C@H](O)[C@@]1(C)[C@@H]3CC[C@H]4C(C)(C)[C@@H](OC(=O)NCCN(C)C)CC[C@@]45C[C@@]35CC[C@]21C)C(C)(C)O` [Compound I-11]: the IC50 with Aβ-42 (setting [3]) and in the experiment with Aβ-42 (setting [1]) was 100 to 500 nM each time.

With `CCO[C@@H]([C@H]1C[C@@H](C)[C@H]2[C@H](O1)[C@H](O)[C@@]1(C)[C@@H]3CC[C@H]4C(C)(C)[C@@H](OC(=O)NCCN5CC(OC)C5)CC[C@@]45C[C@@]35CC[C@]21C)C(C)(C)O` [Compound I-13], the IC50 with Aβ-42 (setting [3]) is 100 to 500 nM; with Aβ-42 (setting [1]), 100 to 500 nM; in the experiment with Aβ-38 (setting [2]) it was 1000 to 5000 nM.

In the case of `CCO[C@@H]([C@H]1C[C@@H](C)[C@H]2[C@H](O1)[C@H](O)[C@@]1(C)[C@@H]3CC[C@H]4C(C)(C)[C@@H](OC(=O)NCCN5CC(F)C5)CC[C@@]45C[C@@]35CC[C@]21C)C(C)(C)O` [Compound I-14], the IC50 in the experiment with Aβ-42 (setting [3]) and in the experiment on Aβ-42 (setting [1]) was 100 to 500 nM throughout.

`CCO[C@@H]([C@H]1C[C@@H](C)[C@H]2[C@H](O1)[C@H](O)[C@@]1(C)[C@@H]3CC[C@H]4C(C)(C)[C@@H](OC(=O)NCCN5CC(O)C5)CC[C@@]45C[C@@]35CC[C@]21C)C(C)(C)O` [Compound I-15]: the IC50 in the experiment with Aβ-42 (setting [3]) and with Aβ-42 (setting [1]) was 100 to 500 nM each time.

Regarding `CCO[C@@H]([C@H]1C[C@@H](C)[C@H]2[C@H](O1)[C@H](O)[C@@]1(C)[C@@H]3CC[C@H]4C(C)(C)[C@@H](OC(=O)NCCN5CCC5)CC[C@@]45C[C@@]35CC[C@]21C)C(C)(C)O` [Compound I-16], the half-inhibitory concentration (IC50) with Aβ-42 (setting [3]) and with Aβ-42 (setting [1]) was 100 to 500 nM throughout.

With `CCO[C@@H]([C@H]1C[C@@H](C)[C@H]2[C@H](O1)[C@H](O)[C@@]1(C)[C@@H]3CC[C@H]4C(C)(C)[C@@H](OC(=O)NCCN5CCN(C6CCC6)CC5)CC[C@@]45C[C@@]35CC[C@]21C)C(C)(C)O` [Compound I-19], the IC50 with Aβ-42 (setting [3]) and in the experiment on Aβ-42 (setting [1]) was 100 to 500 nM each time.

Regarding `CCO[C@@H]([C@H]1C[C@@H](C)[C@H]2[C@H](O1)[C@H](O)[C@@]1(C)[C@@H]3CC[C@H]4C(C)(C)[C@@H](OC(=O)N5CC(N6CCC6)C5)CC[C@@]45C[C@@]35CC[C@]21C)C(C)(C)O` [Compound I-20], the IC50 in the experiment with Aβ-42 (setting [1]) is below 100 nM; in the experiment with Aβ-38 (setting [2]), 100 to 500 nM.

For `CCO[C@@H]([C@H]1C[C@@H](C)[C@H]2[C@H](O1)[C@H](O)[C@@]1(C)[C@@H]3CC[C@H]4C(C)(C)[C@@H](OC(=O)N5CC(N6CC(OC)C6)C5)CC[C@@]45C[C@@]35CC[C@]21C)C(C)(C)O` [Compound I-21], the IC50 fell in the range of 100 to 500 nM in the experiment on Aβ-42 (setting [3]), 100 to 500 nM with Aβ-42 (setting [1]) and 501 to 1000 nM in the experiment on Aβ-38 (setting [2]).

As to `CCO[C@@H]([C@H]1C[C@@H](C)[C@H]2[C@H](O1)[C@H](O)[C@@]1(C)[C@@H]3CC[C@H]4C(C)(C)[C@@H](OC(=O)NC5CN(C6CN(C7CCC7)C6)C5)CC[C@@]45C[C@@]35CC[C@]21C)C(C)(C)O` [Compound I-23], the IC50 lay within 100 to 500 nM in the experiment on Aβ-42 (setting [1]) and 501 to 1000 nM in the experiment on Aβ-38 (setting [2]).

In the case of `CCO[C@@H]([C@H]1C[C@@H](C)[C@H]2[C@H](O1)[C@H](O)[C@@]1(C)[C@@H]3CC[C@H]4C(C)(C)[C@@H](OC(=O)NCCN5CCN(CC(F)F)CC5)CC[C@@]45C[C@@]35CC[C@]21C)C(C)(C)O` [Compound I-24], the IC50 is 100 to 500 nM in the experiment on Aβ-42 (setting [3]), 100 to 500 nM in the experiment with Aβ-42 (setting [1]) and 1000 to 5000 nM in the experiment on Aβ-40 (setting [5]).

Broadly, the IC50 is the concentration at which inhibition is half-maximal.

(Values after patent US20130060024A1, “Compounds useful for treating neurodegenerative disorders” (SATORI PHARMACEUTICALS, INC., priority 2011, published 2013).)
